In patent US20240245694A1, “Tricyclic Compounds and their Uses” (Novartis AG, priority 2022, published 2024):

What was measured:
SW48 cells = assay: Proliferation assay SW48 (CellTiterGlo, 96 hours); type: cell-based; details: Homo sapiens
Outline: (§1)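 Cells in RPMI-1640/10% FCS were seeded overnight (SW48 2'000, DLD1-WRN-KO 1'500 cells/well), then exposed to eight 3-fold compound dilutions at 0.1% DMSO. ATP luminescence relative to a day-0 plate gives % growth (0% stasis, −100% complete kill). GI50 is the geometric mean of ≥2 independent replicates.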

DLD1-WRN-KO cells = assay: Proliferation assay DLD1-WRN-KO (CellTiterGlo, 96 hours), off-target effects; type: cell-based; details: Homo sapiens
Outline: as §1

[1] = Storage stability of the solid at RT; type: physicochemical; details: stored at RT under ambient atmosphere for several months; degradation product Example 25
Text: 2.60 g (3.51 mmol) of Example 21A (7R,9R)—N-(2-chloro-4-(trifluoromethyl)phenyl)-2-(3,6-dihydro-2H-pyran-4-yl)-6-((1S,6S)-5-(5-hydroxy-6-methylpyrimidine-4-carbonyl)-2,5-diazabicyclo[4.2.0]octan-2-yl)-7-methyl-5-oxo-5,7,8,9-tetrahydropyrrolo[1,2-c][1,2,4]triazolo[1,5-a]pyrimidine-9-carboxamide was stored at RT under ambient atmosphere for several months, by which the purity decreased to 86%. The degradation product title compound Example 25 was isolated by column chromatography (RediSep Column: Silica 80 g, eluent DCM:MeOH 100:0 to 90:10). The product containing fractions were combined and concentrated under reduced pressure to give a yellow foam. This foam was further purified by chiral SFC (instrument: Waters Prep SFC100-MS; column: Chiralpak IB-N 250 mm×30 mm 5 μm; eluent: A: 55% MeOH+0.1% NH3, B: 45% scCO2; flow rate: 78.0 mL/min; detection: DAD; injection volume: 1.1 mL; gradient: isocratic A: 55%, B: 45%).

Structure (SMILES)	GI50 (SW48 cells) [nM]	GI50 (DLD1-WRN-KO cells) [nM]	purity after storage [1] [%]
Cc1ncnc(C(=O)N2CCN(c3c4n(c5nc(C6=CCOCC6)nn5c3=O)[C@@H](C(=O)Nc3ccc(C(F)(F)F)cc3Cl)C[C@H]4C)C[C@H]2C)c1O [Example 18A, (7R,9R)—N-(2-chloro-4-(trifluoromethyl)phenyl)-2-(3,6-dihydro-2H-pyran-4-yl)-6-((R)-4-(5-hydroxy-6-methylpyrimidine-4-carbonyl)-3-methylpiperazin-1-yl)-7-methyl-5-oxo-5,7,8,9-tetrahydropyrrolo[1,2-c][1,2,4]triazolo[1,5-a]pyrimidine-9-carboxamide]	40	> 50000	–
Cc1ncnc(C(=O)N2CCN(c3c4n(c5nc(C6=CCOCC6)nn5c3=O)[C@@H](C(=O)Nc3ccc(C(F)(F)F)cc3Cl)C[C@H]4C)[C@H]3CC[C@@H]32)c1O [Example 21A, (7R,9R)—N-(2-chloro-4-(trifluoromethyl)phenyl)-2-(3,6-dihydro-2H-pyran-4-yl)-6-((1S,6S)-5-(5-hydroxy-6-methylpyrimidine-4-carbonyl)-2,5-diazabicyclo[4.2.0]octan-2-yl)-7-methyl-5-oxo-5,7,8,9-tetrahydropyrrolo[1,2-c][1,2,4]triazolo[1,5-a]pyrimidine-9-carboxamide]	6	> 50000	86
